Experimental data as given in US20120295291A1, “Method for Determining the Risk of Clopidogrel Resistance” (SIEMENS HEALTHCARE DIAGNOSTICS PRODUCTS GMBH, priority 2011, published 2012).
Read-outs that look alike come from different tables or passages of the source.

Test system: thrombocytes (thrombocyte activity; ADP receptor P2Y12)
Conditions: for patients studied clopidogrel-resistant (closure time below cut-off after intake of clopidogrel): INNOVANCE PFA P2Y cartridges, after 300 or 600 mg clopidogrel loading dose, cut-off 106 s

COC(=O)[C@H](c1ccccc1Cl)N1CCc2sccc2C1 [clopidogrel, methyl (S)-α-(2-chlorophenyl)-6,7-dihydrothieno[3,2-c]pyridine-5(4H)-acetate]
relative risk of patient not responding to clopidogrel (Col/EPI closure time prior to intake 140 s (3.2% citrated blood), response by INNOVANCE PFA P2Y after intake in 3.8% citrated whole blood, p<0.0001): 2.64
relative risk of patient not responding to clopidogrel (Col/EPI closure time prior to intake ≦140 s vs >140 s, 3.2% citrated whole blood, p<0.004): 1.78
patients studied clopidogrel-resistant (closure time below cut-off after intake of clopidogrel) (3.2% citrated whole blood): 45.8%
patients studied clopidogrel-resistant (closure time below cut-off after intake of clopidogrel) (3.8% citrated whole blood): 37.5%
relative risk of patient not responding to clopidogrel (INNOVANCE PFA P2Y closure time prior to intake ≦59 s vs >59 s, 3.8% citrated whole blood, p<0.002): 1.98
relative risk of patient not responding to clopidogrel (INNOVANCE PFA P2Y closure time prior to intake ≦60 s vs >60 s, 3.2% citrated whole blood, p<0.02): 1.61
relative risk of patient not responding to clopidogrel (patients undergoing ASA therapy, Col/ADP closure time prior to intake ≦91 s vs >91 s, 3.2% citrated whole blood, p=0.06): 1.47
